According to paper PMC10794885 (RSC Advances, 2024):

Assay: Stability in simulated intestinal fluid
Format: physicochemical

Compound: CC[C@H]1OC(=O)[C@H](C)[C@@H](O[C@H]2C[C@@](C)(OC)[C@@H](O)[C@H](C)O2)[C@H](C)[C@@H](O[C@@H]2O[C@H](C)C[C@H](N(C)C)[C@H]2O)[C@](C)(O)C[C@@H](C)C(=O)[C@H](C)[C@@H](O)[C@]1(C)O [erythromycin]
- half-life: 7.97 h
